Counter-ions that a name gives are not always drawn.
Legend:
HIF1-alpha = test: Measurement of the stabilization of HIF1-alpha in HEKEA cells (beta-galactosidase complementation); format: cell-based, human; settings: HEKEA_HIF1-alphaPLBL cells, 6 hours under normoxia, luminescence; molar concentration that produces 50% of the maximum response of this same compound
From the text: Furthermore, a subject of the invention is also a uniform test for the direct measurement by beta-galactosidase complementation of the amount of HIF1-alpha protein in the nucleus of cells, preferably HEK cells, after treating the said cells with one or more test compounds, which consists in: • (a) inoculating, preferably in 384-well plates, the said cells in a suitable culture medium, preferably 1% foetal calf serum (abbreviated as FCS); • (b) adding the test compound(s) at a suitable concentration in a suitable solvent to the cells previously inoculated in the said culture medium; preferably the test compounds are diluted in 0.1% FCS; • (c) incubating the said cells thus prepared in an indicator at about 37° C., advantageously for about 6 hours; • (d) lysing the cells with a lysis buffer containing a chemiluminescent substrate for beta-galactosidase; • (e) incubating in the absence of light, before reading and measuring the luminescence, which is a function of the beta-galactosidase activity.
The test is a cell test based on the principle of enzyme complementation, the enzyme used herein being beta-galactosidase. HEKEA cells are HEK cells stably expressing, and restricted in their nucleus, mutant beta-galactosidase (omega fragment, also known as EA) (line sold by DiscoverX). This construct makes it possible to obtain beta-galactosidase activity only when the protein comprising the Prolabel complementation fragment has migrated into the nucleus.
The protein of interest comprising the Prolabel fragment is in this case an HIF1-alpha or HIF1-alpha mutated at the two prolines 402 and 564 replaced with alanines, is C-terminal fused via molecular biology (DiscoverX vector sold by Clontech) with the small complementation peptide fragment (Prolabel or ED, about 4 kDa). The vector coding for the chimeric protein HIF1-alpha_Prolabel is then transfected into HEKEA cells to obtain stable clones (HEKEA_HIF1-alphaPLBL).
The amount of C-terminal Prolabel-“labelled” HIF1-alpha protein obtained after treating the cells to hypoxia or compounds that are potentially HIF activators is measured by adding to the cells a lysis buffer containing a chemiluminescent substrate for beta-galactosidase.
The measurement of the beta-galactosidase activity will be proportional to the amount of Prolabel and thus of HIF1-alpha that has migrated into the nucleus of the cells.
1.3.1 Experiment Plan • 1) Inoculation of the cells on D0 • 2) Adherence for 24 hours under normoxia • 3) Preparation and addition of the products (Biomek 2000 and FX) on D+1 • 4) Incubation under normoxia for 6 hours • 5) Reading of the plates (by luminescence)
The cells are inoculated with Multidrop in white, opaque-bottomed 384-well plates (Greiner ref 3704), in 30 μl of culture medium (1% FCS) a 10000 cells/well (cell plate).
The test products are prepared at 3×10^−2 M in 100% DMSO and then diluted to 3×10^−4 M in medium containing 0.1% FCS (10 μl in 990 μl of MEM). They are then deposited by hand into column 12 of a round-bottomed 96-well plate (200 μl of each compound) known as the dilution plate (dl). The complete DL plate of 3×10^−4 M to 10^−9 M is then prepared with Biomek 2000 (programme: range of 10 points in series). For the references and controls, 100 μl of DMEM containing 0.1% FCS are added to column 1, 100 μl of Deferoxamine 10^−3M to column 2, wells A B C D and 100 μl of Deferoxamine 5×10^−3 M to column 2, wells E F G H.
3.3 μL are taken from the DL plate by pipetting with a Biomek FX 96 and placed in horizontal duplicate (columns 1 to 24) in each 384-well cell plate (HEKEA_HIF1-alphaPLBL cell plate).
The cells are then placed for 6 hours in an incubator at 37° C. (ambient O2, 6% CO2).
The kit used is the Prolabel chemiluminescent kit (Ref 93-0001 DiscoverX). […]

Structure (SMILES)	melting point [°C]	EC50 (HIF1-alpha) [µM]
CN(Cc1ccccn1)S(=O)(=O)c1ccc(-n2[nH]c3c(c2=O)CSC3)nc1 (as salt: HCl) [Compound 27, N-methyl-6-(3-oxo-4,6-dihydro-1H-thieno[3,4-c]pyrazol-2(3H)-yl)-N-(pyridin-2-ylmethyl)pyridine-3-sulfonamide]	198	
CN(C)c1ccnc(-n2[nH]c3c(c2=O)CSC3)c1 (as salt: HCl) [Compound 60, 2-[4-(dimethylamino)pyridin-2-yl]-1,2,4,6-tetrahydro-3H-thieno[3,4-c]pyrazol-3-one hydrochloride]	182	
CCN(C(C)(C)C)S(=O)(=O)c1ccc(-n2nc3c(c2O)CSC3)nc1 (as salt: Na) [Compound 32, sodium 2-{5-[tert-butyl(ethyl)sulfamoyl]pyridin-2-yl}-2,6-dihydro-4H-thieno[3,4-c]pyrazol-3-olate]	> 260	
CCN(c1ccccc1)S(=O)(=O)c1ccc(-n2nc3c(c2O)N(Cc2ccccc2)C(=O)CC3)nc1 (as salt: Na) [Compound 35, sodium 4-benzyl-2-{5-[ethyl(phenyl)sulfamoyl]pyridin-2-yl}-5-oxo-4,5,6,7-tetrahydro-2H-pyrazolo[4,3-b]pyridin-3-olate]	> 250	
CN(C(C)(C)C)S(=O)(=O)c1ccc(-n2nc3c(c2O)CSC3)nc1 (as salt: Na) [Compound 36, sodium 2-{5-[tert-butyl(methyl)sulfamoyl]pyridin-2-yl}-2,6-dihydro-4H-thieno[3,4-c]pyrazol-3-olate]	130	
CCc1ccnc(-n2[nH]c3c(c2=O)CSC3)c1 (as salt: Na) [Compound 61, sodium 2-(4-ethylpyridin-2-yl)-2,6-dihydro-4H-thieno[3,4-c]pyrazol-3-olate]	> 260	
Oc1c2c(nn1-c1cc(OCc3cccnc3)ccn1)CSC2 (as salt: Na) [Compound 64, sodium 2-[4-(pyridin-3-ylmethoxy)pyridin-2-yl]-2,6-dihydro-4H-thieno[3,4-c]pyrazol-3-olate]	> 260	
O=c1c2c([nH]n1-c1ccccn1)CCC2 [Compound 7, 2-(pyridin-2-yl)-1,4,5,6-tetrahydrocyclopenta[c]pyrazol-3(2H)-one]	156	6
COC1CCc2c1[nH]n(-c1ccccn1)c2=O (stereo not shown) [Compound 11, 6-methoxy-2-(pyridin-2-yl)-1,4,5,6-tetrahydrocyclopenta[c]pyrazol-3(2H)-one]	76	
O=c1c2c([nH]n1-c1ccccn1)CCSC2 [Compound 12, 2-(pyridin-2-yl)-1,4,6,7-tetrahydrothiopyrano[4,3-c]pyrazol-3(2H)-one]	175	
O=c1c2c([nH]n1-c1ccc(S(=O)(=O)Nc3ccccn3)cn1)CSC2 [Compound 23, 6-(3-oxo-4,6-dihydro-1H-thieno[3,4-c]pyrazol-2(3H)-yl)-N-(pyridin-2-yl)pyridine-3-sulfonamide]	> 260	12
CN(Cc1ccccn1)S(=O)(=O)c1ccc(-n2[nH]c3c(c2=O)CSC3)nc1 [Compound 27, N-methyl-6-(3-oxo-4,6-dihydro-1H-thieno[3,4-c]pyrazol-2(3H)-yl)-N-(pyridin-2-ylmethyl)pyridine-3-sulfonamide]		9.5
Cc1ccc(-n2nc3c(c2[O-])CSC3)nc1.[Na+] [Compound 31, sodium 2-(5-methylpyridin-2-yl)-2,6-dihydro-4H-thieno[3,4-c]pyrazol-3-olate]	> 220	
CC(C)(C)NC(=O)c1ccc(-n2nc3c(c2O)CSC3)nc1 [Compound 33, sodium 2-[5-(tert-butylcarbamoyl)pyridin-2-yl]-2,6-dihydro-4H-thieno[3,4-c]pyrazol-3-olate]		9.4
COc1ccc(-n2nc3c(c2[O-])CSC3)nc1.[Na+] [Compound 34, sodium 2-(5-methoxypyridin-2-yl)-2,6-dihydro-4H-thieno[3,4-c]pyrazol-3-olate]	> 220	10
CCN(c1ccccc1)S(=O)(=O)c1ccc(-n2[nH]c3c(c2=O)CCCCCC3)nc1 [Compound 37, N-ethyl-6-(3-oxo-1,3,4,5,6,7,8,9-octahydro-2H-cycloocta[c]pyrazol-2-yl)-N-phenylpyridine-3-sulfonamide]	200	2.2
CCN(CC)S(=O)(=O)c1ccc(-n2[nH]c3c(c2=O)CSC3)nc1 [Compound 38, N,N-diethyl-6-(3-oxo-4,6-dihydro-1H-thieno[3,4-c]pyrazol-2(3H)-yl)pyridine-3-sulfonamide]	192	3.8
O=c1c2c([nH]n1-c1ccc(S(=O)(=O)N(CC(O)CO)C3CCCC3)cn1)CSC2 (stereo not shown) [Compound 53, N-cyclopentyl-N-(2,3-dihydroxypropyl)-6-(3-oxo-4,6-dihydro-1H-thieno[3,4-c]pyrazol-2(3H)-yl)pyridine-3-sulfonamide]	190	
CC(C)(C)COC(=O)c1ccc(-n2[nH]c3c(c2=O)CN(S(C)(=O)=O)CC3)nc1 [Compound 54, 2,2-dimethylpropyl 6-[5-(methylsulfonyl)-3-oxo-1,3,4,5,6,7-hexahydro-2H-pyrazolo[4,3-c]pyridin-2-yl]pyridine-3-carboxylate]	230	
CN(C)c1ccnc(-n2[nH]c3c(c2=O)CSC3)c1 [Compound 60, 2-[4-(dimethylamino)pyridin-2-yl]-1,2,4,6-tetrahydro-3H-thieno[3,4-c]pyrazol-3-one hydrochloride]		21
Cc1ccnc(-n2nc3c(c2[O-])CSC3)c1.[Na+] [Compound 62, sodium 2-(4-methylpyridin-2-yl)-2,6-dihydro-4H-thieno[3,4-c]pyrazol-3-olate]	> 250	3.9
CC(C)c1ccnc(-n2[nH]c3c(c2=O)CSC3)c1 [Compound 65, 2-[4-(propan-2-yl)pyridin-2-yl]-1,2,4,6-tetrahydro-3H-thieno[3,4-c]pyrazol-3-one]	92	

Source: patent US8697731B2, “Derivatives of 2-pyridin-2-yl-pyrazol-3(2H)-one, preparation and therapeutic use thereof” (Sanofi, priority 2008, dated 2014)
